Laboratory results: US20240383874A1, “BENZENE RING DERIVATIVE, AND COMPOSITION AND PHARMACEUTICAL USE THEREOF” (Xizang Haisco Pharmaceutical Co., Ltd., priority 2020, published 2024)
Structures can show the parent of a compound that is named as a salt.

System: 22RV1 cells
Experiment: Experiment 2 on inhibiting 22RV1 cell proliferation (7 days, CellTiter-Glo)
Type: cell-based
Settings: Homo sapiens, 22Rv1, 168 h, 1% css-FBS phenol red-free medium, incubated with compound 7 days, read-out: IC50 values on proliferation inhibition of 22RV1 cells
Method in brief: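 Survival measured by CellTiter-Glo after 7 days of compound exposure, normalised to DMSO controls, with IC50 fitted by dose-response. Cells (22RV1, 2000/well) were seeded overnight in 1% css-FBS phenol red-free medium before dosing.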

SMILES | IC50 [nM]
CC(C)(c1ccc(OCc2ccnc(N3CC4(CCN(CC5CN(c6ccc7c(c6)C(=O)N(C6CCC(=O)NC6=O)C7=O)C5)CC4)C3)n2)cc1)c1cc(Cl)cc(C#N)c1 (stereo not shown) [Compound 70 trifluoroacetate, 3-chloro-5-(2-(4-((2-(7-((1-(2-(2,6-dioxopiperidin-3-yl)-1,3-dioxoisoindolin-5-yl)azetidin-3-yl)methyl)-2,7-diazaspiro[3.5]nonan-2-yl)pyrimidin-4-yl)methoxy)phenyl)propan-2-yl)benzonitrile] | 612
Cn1c(=O)n(C2CCC(=O)NC2=O)c2ccc(CN3CC(N4CCC(N5CCN(c6nccc(COc7ccc(C(C)(C)c8cc(Cl)cc(C#N)c8)cc7)n6)CC5)CC4)C3)cc21 (stereo not shown) [Compound 71 trifluoroacetate, 3-chloro-5-(2-(4-((2-(4-(1-(1-((1-(2,6-dioxopiperidin-3-yl)-3-methyl-2-oxo-2,3-dihydro-1H-benzo[d]imidazol-5-yl)methyl)azetidin-3-yl)piperidin-4-yl)piperazin-1-yl)pyrimidin-4-yl)methoxy)phenyl)propan-2-yl)benzonitrile] | 811
Cn1c(=O)n(C2CCC(=O)NC2=O)c2cccc(CN3CCC(CN4CCC(C5CCN(c6nccc(COc7ccc(C(C)(C)c8cc(Cl)cc(C#N)c8)cc7)n6)CC5)CC4)CC3)c21 (stereo not shown) [Compound 74 trifluoroacetate, 3-chloro-5-(2-(4-((2-(1′-((1-((1-(2,6-dioxopiperidin-3-yl)-3-methyl-2-oxo-2,3-dihydro-1H-benzo[d]imidazol-4-yl)methyl)piperidin-4-yl)methyl)-[4,4′-bipiperidin]-1-yl)pyrimidin-4-yl)methoxy)phenyl)propan-2-yl)benzonitrile] | 474
CC(C)(c1ccc(OCc2ccnc(N3CCC4(CC3)CN(C3CCN(C5CN(c6ccc7c(c6)C(=O)N(C6CCC(=O)NC6=O)C7=O)C5)CC3)C4)n2)cc1)c1cc(Cl)cc(C#N)c1 (stereo not shown) [Compound 75 trifluoroacetate, 3-chloro-5-(2-(4-((2-(2-(1-(1-(2-(2,6-dioxopiperidin-3-yl)-1,3-dioxoisoindolin-5-yl)azetidin-3-yl)piperidin-4-yl)-2,7-diazaspiro[3.5]nonan-7-yl)pyrimidin-4-yl)methoxy)phenyl)propan-2-yl)benzonitrile] | 275
CC(C)(c1ccc(OCc2ccnc(N3CCC4(CC3)CN(C3CN(C5CN(c6ccc7c(c6)C(=O)N(C6CCC(=O)NC6=O)C7=O)C5)C3)C4)n2)cc1)c1cc(Cl)cc(C#N)c1 (stereo not shown) [Compound 76 trifluoroacetate, 3-chloro-5-(2-(4-((2-(2-(1′-(2-(2,6-dioxopiperidin-3-yl)-1,3-dioxoisoindolin-5-yl)-[1,3′-biazetidin]-3-yl)-2,7-diazaspiro[3.5]nonan-7-yl)pyrimidin-4-yl)methoxy)phenyl)propan-2-yl)benzonitrile] | 475

More lines, now with the values ahead:

IC50 [nM] | SMILES
464 | CC(C)(c1ccc(OCc2ccnc(N3CC4CN(CC5CCN(c6ccc7c(c6)C(=O)N(C6CCC(=O)NC6=O)C7=O)CC5)CC4C3)n2)cc1)c1cc(Cl)cc(C#N)c1 (stereo not shown) [Compound 72 trifluoroacetate, 3-chloro-5-(2-(4-((2-(5-((1-(2-(2,6-dioxopiperidin-3-yl)-1,3-dioxoisoindolin-5-yl)piperidin-4-yl)methyl)hexahydropyrrolo[3,4-c]pyrrol-2(1H)-yl)pyrimidin-4-yl)methoxy)phenyl)propan-2-yl)benzonitrile]
97 | CC(C)(c1ccc(OCc2ccnc(N3CC4CN(CC5CN(c6ccc7c(c6)C(=O)N(C6CCC(=O)NC6=O)C7=O)C5)CC4C3)n2)cc1)c1cc(Cl)cc(C#N)c1 (stereo not shown) [Compound 73 trifluoroacetate, 3-chloro-5-(2-(4-((2-(5-((1-(2-(2,6-dioxopiperidin-3-yl)-1,3-dioxoisoindolin-5-yl)azetidin-3-yl)methyl)hexahydropyrrolo[3,4-c]pyrrol-2(1H)-yl)pyrimidin-4-yl)methoxy)phenyl)propan-2-yl)benzonitrile]
